Laboratory results as given in patent publication US6348468B1, “Pyridazine compounds and compositions containing the same” (Kowa Co., Ltd., priority 1997, dated 2002).

Experiments:
[1] = tested on: Interleukin-1β (IL-1β) Production; test: Inhibitory activity against interleukin-1β production (LPS-stimulated HL-60 cells, ELISA); assay type: cell-based; conditions: Homo sapiens, 72 h, lipopolysaccharide 10 μg/ml, culturing for 3 days
Description: HL-60 cells were cultured for 4 days until confluence on RPMI 1640 medium with 10% fetal bovine serum (FBS) added thereto. The HL-60 cells were centrifuged. The supernatant was discarded, and the cells were then suspended at 1×10^6 cells/ml on RPMI 1640 medium with 3% FBS, and lipopolysaccharide was added to give a final concentration of 10 μg/ml. The culture was inoculated at 1 ml/well to a 24-well plate. A test sample was added at 1 μl/well, followed by culturing for 3 days. Three days later, the amount of interleukin-1β in each of the cultures was measured by ELISA. Its IC50 value was determined by a comparison in yield with a control to which no test sample was added.

TNF-α Production = test: Inhibitory activity against TNF-α production (LPS-stimulated RAW 264.7 cells, L-929 cytotoxicity readout); assay type: cell-based; conditions: Mus musculus, RAW264.7, lipopolysaccharide, culturing for 20 hours
Description: RAW 264.7 cells were cultured until confluence on DMEM culture with 10% fetal bovine serum (FBS), and were diluted to 1×10^6 cells/ml with the same medium and then inoculated at 100 μl/well to a 96-well plate. To the cells, a test sample which had been diluted with the same medium and lipopolysaccharide of 4 μg/ml was added at 50 μl/well, respectively. Subsequent to culturing for 20 hours, the cultures were collected.
Making use of cytotoxicity to L-929 cell strain, a TNF-α sensitive cell strain, the amount of TNF-α in each of the cultures was measured as will be described next. Described specifically, L-929 cells which had been cultured on MEM medium with 10% FBS added thereto were diluted to 2×10^5 cells/ml with the same medium, and were then inoculated at 100 μl/well to a 96-well plate. Subsequent to overnight incubation, standard TNF-α solutions, or 100-fold, 200-fold and 500-fold dilute solutions of the above-described culture of RAW 264.7 cells were added at 50 μl/well, and actinomycin D (4 μg/ml) was also added at 50 μl/well, followed by further culturing for 20 hours. Twenty hours later, each well was washed with PBS, viable cells were stained with crystal violet, and the inhibitory activity against TNF-α production was determined with reference to a standard curve of TNF-α.

IL-6 Production = test: Inhibitory activity against IL-6 production (LPS-stimulated RAW 264.7 cells, ELISA); assay type: cell-based; conditions: Mus musculus, RAW264.7, lipopolysaccharide, culturing for 20 hours
Description: RAW 264.7 cells, which had been cultured until confluence on DMEM culture with 10% fetal bovine serum (FBS) added thereto, were diluted to 1×10^6 cells/ml with the same medium, and were then inoculated at 100 μl/well to a 96-well plate. A test sample which had been diluted with the same medium and lipopolysaccharide of 4 μg/ml in concentration was added at 50 μl/well, respectively. Subsequent to culturing for 20 hours, the cultures were collected.
The amount of IL-6 in each of the thus-obtained cultures of RAW 264.7 cells was measured by ELISA, and 5 the inhibitory activity against IL-6 production was determined with reference to a standard curve of IL-6.

[2] = tested on: collagen-induced arthritis models of mice; test: Therapeutic effects for arthritis in collagen-induced arthritis models of mice; assay type: in vivo; conditions: P.O.; for Percent inhibition to swelling: determined by quantitation of swelling; for Percent inhibition to arthritis development: determined depending on the existence or non-existence of swelling
Description: In accordance with the disclosure of Nature 283, 666-668, 1980, therapeutic effects for arthritis were evaluated by using collagen-induced arthritis models of mice.

rats = test: Maximum no-effect level, oral once a day for 2 weeks, rats; assay type: in vivo; conditions: orally once a day for 2 weeks
dogs = test: Maximum no-effect level, oral once a day for 2 weeks, dogs; assay type: in vivo; conditions: orally once a day for 2 weeks

| SMILES | IC50 [1] [nM] | melting point [°C] | other results |
| --- | --- | --- | --- |
| COc1ccc(-c2cc(=O)n(CCCl)nc2-c2ccc(OC)cc2)cc1 [Comp. Comp'd 1] | 29000 |  | IC50 (TNF-α Production): 10000 nM; IC50 (IL-6 Production): 65000 nM |
| COc1ccc(-c2cc(=O)n(Cc3cccnc3)nc2-c2ccc(OC)cc2)cc1 [Example 44, 5,6-bis(4-methoxyphenyl)-2-(3-pyridylmethyl)-2H-pyridazin-3-one] | 430 | 167.4 to 168.4 |  |
| CSc1ccc(-c2nn(Cc3ccccc3)c(=O)cc2-c2ccc(Cl)cc2)cc1 [Example 51, 2-benzyl-5-(4-chlorophenyl)-6-[4-(methylthio)phenyl]-2H-pyridazin-3-one] | 290 |  | Percent inhibition to swelling ([2]; 1 mg/kg): 33.3%; Percent inhibition to arthritis development ([2]; 1 mg/kg): 40%; Percent inhibition to swelling ([2]; 3 mg/kg): 77.4%; Percent inhibition to arthritis development ([2]; 3 mg/kg): 50%; Maximum no-effect level (rat) (rats): 100 mg/kg; toxicity at the dose level of Table 4 (in words) (rats): no toxicity was observed at all; Maximum no-effect level (dog) (dogs): 30 mg/kg; toxicity at the dose level of Table 4 (in words) (dogs): no toxicity was observed at all |
| CSc1ccc(-c2nn(Cc3ccccc3)c(=O)cc2-c2ccc(F)cc2)cc1 [Example 61, 5-(4-fluorophenyl)-6-[4-(methylthio)phenyl]-2-benzyl-2H-pyridazin-3-one] | 210 | 140.6 to 140.7 |  |
| COc1ccc(-c2cc(=S)n(Cc3ccccc3)nc2-c2ccc(OC)cc2)cc1 [Example 123, 5,6-bis(4-methoxyphenyl)-2-benzyl-2H-pyridazine-3-thione] | 190 | 134.7 to 148.6 |  |
| CSc1ccc(-c2nn(Cc3ccc(Cl)cc3Cl)c(=S)cc2-c2ccc(Cl)cc2)cc1 [Example 134, 5-(4-chlorophenyl)-2-(2,4-dichlorobenzyl)-6-[4-(methylthio)phenyl]-2H-pyridazine-3-thione] | 200 | 183.2 to 183.4 |  |
| COc1ccc(-c2cc(=O)n(C)nc2-c2ccc(OC)cc2)cc1 [Example 164, 5,6-bis(4-methoxyphenyl)-2-methyl-2H-pyridazin-3-one] | 1130 |  |  |
| COc1ccc(-c2cc(=O)n(C3CC3)nc2-c2ccc(OC)cc2)cc1 [Example 168, 5,6-bis(4-methoxyphenyl)-2-cyclopropyl-2H-pyridazin-3-one] | 7980 |  |  |
| COc1ccc(-c2cc(=O)n(CC3CC3)nc2-c2ccc(OC)cc2)cc1 [Example 169, 5,6-bis(4-methoxyphenyl)-2-cyclopropylmethyl-2H-pyridazin-3-one] | 1800 |  |  |
| COc1ccc(-c2cc(=S)n(CC3CC3)nc2-c2ccc(OC)cc2)cc1 [Example 170, 5,6-bis(4-methoxyphenyl)-2-cyclopropylmethyl-2H-pyridazine-3-thione] | 1190 |  |  |
| COc1ccc(-c2cc(=O)n(C3CCCC3)nc2-c2ccc(OC)cc2)cc1 [Example 171, 5,6-bis(4-methoxyphenyl)-2-cyclopentyl-2H-pyridazin-3-one] | 510 | 141.2 to 142.2 |  |

More lines, in order of falling IC50 [1], values ahead:

| IC50 [1] [nM] | melting point [°C] | SMILES | other results |
| --- | --- | --- | --- |
| 46000 |  | COc1ccc(-c2cc(=O)n(CCO)nc2-c2ccc(OC)cc2)cc1 [Comp. Comp'd 2] | IC50 (TNF-α Production): 26000 nM; IC50 (IL-6 Production): 44000 nM |
| 1320 |  | COc1ccc(-c2cc(=O)n(C(C)C)nc2-c2ccc(OC)cc2)cc1 [Example 165, 5,6-bis(4-methoxyphenyl)-2-isopropyl-2H-pyridazin-3-one] |  |
| 610 |  | CCn1nc(-c2ccc(OC)cc2)c(-c2ccc(OC)cc2)cc1=O [Example 163, 5,6-bis(4-methoxyphenyl)-2-ethyl-2H-pyridazin-3-one] | IC50 (TNF-α Production): 1200 nM; IC50 (IL-6 Production): 400 nM |
| 490 | 177.8 to 178.5 | CCn1nc(-c2ccc(OC)c(F)c2)c(-c2ccc(OC)c(F)c2)cc1=O [Example 160, 5,6-bis(3-fluoro-4-methoxyphenyl)-2-ethyl-2H-pyridazin-3-one] |  |
| 390 | 139.3 to 139.5 | CSc1ccc(-c2nn(Cc3ccc(Cl)cc3Cl)c(=O)cc2-c2ccc(F)cc2)cc1 [Example 65, 5-(4-fluorophenyl)-6-[4-(methylthio)phenyl]-2-(2,4-dichlorobenzyl)-2H-pyridazin-3-one] |  |
| 270 | 135.7 to 135.8 | CSc1ccc(-c2nn(CC3CC3)c(=S)cc2-c2ccc(F)cc2)cc1 [Example 137, 2-cyclopropylmethyl-5-(4-fluorophenyl)-6-[4-(methylthio)phenyl]-2H-pyridazine-3-thione] |  |
| 180 |  | COc1ccc(-c2nn(Cc3ccc(Cl)cc3)c(=S)cc2-c2ccncc2)cc1 [Example 142, 2-(4-chlorobenzyl)-6-(4-methoxyphenyl)-5-(4-pyridyl)-2H-pyridazine-3-thione] |  |
| 110 |  | COc1ccc(-c2cc(=O)n(CC3CCCC3)nc2-c2ccc(OC)cc2)cc1 [Example 172, 5,6-bis(4-methoxyphenyl)-2-cyclopentylmethyl-2H-pyridazin-3-one] |  |
